From patent publication US12642862B2, “Anti-CD79B antibody-drug conjugate, and preparation method therefor and pharmaceutical use thereof” (TUOJIE BIOTECH (SHANGHAI) CO., LTD., priority 2020, dated 2026)
Where “and” joins values, the source holds several entries; their conditions need not be identical. Equal values may be shown once. Read-outs that look alike come from different tables or passages of the source.

Tests used:
[1] = tested on: DOHH-2 cells highly expressing human CD79B protein; type: cell-based; conditions: DoHH2 cells, 20 μg/mL ADC, 37° C.
Experimental: A cell endocytosis experiment was performed with DOHH-2 cells (DSMZ, ACC 47) highly expressing human CD79B protein to assess the endocytosis ability of ADCs.
The cells were collected by low temperature centrifugation at 4° C. for 5 min at 1000 rpm during the experiment. The cells were resuspended in 10-15 mL of FACS buffer pre-cooled on ice. The FACS buffer was composed of phosphate buffered saline (PBS), pH 7.4, with 2% fetal bovine serum (FBS). Throughout the experiment, FACS buffer was pre-cooled on ice. The cells were counted and centrifuged, and added to a 96-well plate at 300,000 cells/well. After centrifugation, the supernatant was discarded, and 12.5 μg/mL Fc blocking solution (BD, Cat No.: 564220) was added at 100 μL/well. Blocking was performed at room temperature for 10 min. Then, 20 μg/mL test ADC was added to the corresponding wells, and the plate was incubated at 4° C. for 1 h away from the light. The plate was washed twice with a pre-cooled PBS buffer to remove unbound ADCs. A complete cell culture medium (RPMI 1640 medium with 10% fetal bovine serum) was added, and the plate was incubated at 37° C. with 5% CO2 for 0 h and 4 h. […] The cells were resuspended in an FACS buffer at 200 μL/well and detected using a flow cytometer (BD FACS Calibur).

human CD79B = biological target: T1, human CD79B (Homo sapiens, UniProt P40259); experiment: Biacore affinity assay of CD79B antibodies and ADCs; parameters: His; purchased Sino Biological 29750-H08H; conditions: binding force to human CD79B protein
T1 sequence (P40259 29-159 limits assumed): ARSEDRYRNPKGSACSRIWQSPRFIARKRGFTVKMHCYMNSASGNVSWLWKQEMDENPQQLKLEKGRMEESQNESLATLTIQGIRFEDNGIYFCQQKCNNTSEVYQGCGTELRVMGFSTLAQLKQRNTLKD
Text: Experimental instruments, materials and reagents: Biacore T200 (GE); biosensor chip CM5 (Cat. #BR-1005-30, GE); amino coupling kit (Cat. #BR-1000-50, GE); human antibody capture kit (Cat. #BR-1008-39, GE); human CD79B-His protein (Cat. #29750-H08H, Sino Biological); HBS-EP+10× buffer (Cat. #BR-1006-69, GE) diluted to 1× (pH 7.4) with D. I. Water.
Experimental procedures: human antibody capture antibodies were covalently coupled to a CM5 biochip according to the method described instructions of the human antibody capture kit for affinity capture of a certain amount of CD79B antibody.
Statistics and analysis of data: data were fitted by BIAevaluation version 4.1, GE software using a (1:1) Langmuir model to obtain affinity values.

[2] = tested on: human follicular lymphoma DOHH-2-induced nude mouse subcutaneous xenograft tumor; type: in vivo, nude mice (BALB/c-nu); conditions: 1 mg/kg, IV
Experimental: This example was performed to further evaluate and compare the efficacy of ADC drugs on DoHH2-induced nude mouse subcutaneous xenograft tumor.
2. Cells and mice: DOHH-2 cells were purchased from DSMZ, Germany.
Nude mice, BALB/c-nu, 4-5 weeks of age, female, were purchased from Shanghai Lingchang Biotechnology Co., Ltd, with production license number of SCXK (Shanghai) 2018-0003, and animal certification number of 20180003010222. Housing environment: SPF grade.
3. […] The mice were administrated by intravenous injection (IV) at an administration volume of 10 mL/kg.
At the end of the experiment, at the experiment endpoint, or when the mean tumor volume in the solvent group reached 1500 mm^3, the animals were sacrificed by CO2 anesthesia and dissected to give the tumors. The tumors were photographed.

[3] = tested on: human diffuse large B-cell lymphoma WSU-DLCL2-induced nude mouse subcutaneous xenograft tumor; type: in vivo, nude mice (BALB/c-nu); conditions: for Mean tumor volume (mm^3 ± SEM) D0 / Mean tumor volume (mm^3 ± SEM) D21 / Tumor growth inhibition (%) D21 / T/C (%) D21 / Partial regression: IV; for Mean tumor volume (mm^3 ± SEM) D0: baseline at grouping; for Mean tumor volume (mm^3 ± SEM) D21 / Tumor growth inhibition (%) D21 / T/C (%) D21 / Partial regression: single dose D0; for T/C (%) D21: control IgG1; for Partial regression: tumors (of 6) with volume on D21 less than on D0
Experimental: This example was performed to evaluate and compare the efficacy of ADC drugs on nude mouse subcutaneous xenograft tumor.
Cells and mice: human diffuse large B-cell lymphoma WSU-DLCL2 cells were purchased from American Type Culture Collection. WSU-DLCL2 cells were cultured in a 10 cm petri dish with an RPMI 1640 culture medium (Gibco) containing 10% fetal bovine serum, penicillin and streptomycin and incubated in an incubator at 37° C. with 5% CO2. Subculturing was performed 2-3 times a week, and cells were collected, counted and seeded when they were in exponential growth phase.
Nude mice, BALB/c-nu, 35 days of age, female, were purchased from Beijing Huafukang Biotechnology Co., Ltd, with production license number of SCXK (Beijing) 2019-0008, and animal certification number of 1103222011004014. Housing environment: SPF grade.
The experimental index is to study the effect of the drug on the tumor growth, and the specific index is T/C % or tumor growth inhibition TGI (%).
Tumor diameters were measured twice a week with a vernier caliper and tumor volume (V) was calculated according to the following formula: V=½×a×b^2, where a and b represent length and width, respectively.
T/C (%)=(T−T0)/(C−C0)×100, where T and C represent the tumor volume of animals at the end of the experiment in the treatment group and control group, respectively; T0 and C0 represent the tumor volume of animals at the beginning of the experiment in the treatment group and control group, respectively; where T is the tumor volume of the ADC administered and C is the tumor volume of IgG1 administered as a control group.
At the end of the experiment, at the experiment endpoint, or when the mean tumor volume in the solvent group reached 1500 mm^3, the animals were sacrificed by CO2 anesthesia and dissected to give the tumors. The tumors were photographed. Unless otherwise indicated, comparison between tumor volumes of the two groups was made by two-way ANOVA test, with P<0.05 defined as statistically significant difference.

DoHH2 = type: cell-based, human; conditions: DoHH2 (CD79B high-expression), 72 h, MTT
Experimental: (§1) This example was performed to evaluate the effect of different ADCs on the proliferation of DoHH2, WSU-DLCL2 and Raji cells cultured in vitro.
(§2) A certain number of cells in logarithmic growth phase were seeded into a 96-well culture plate, and drugs at different concentrations were added to the culture plate for reaction for 72 h. After the reaction was completed, an MTT working solution was added for reaction for 4 h, then blue-purple crystalline formazan was dissolved with a triplex solution.
(§3) From the inhibition rate at each concentration, the half maximal inhibitory concentration IC50 was calculated using PrismGraph 8.

[4] = tested on: human diffuse large B-cell lymphoma WSU-DLCL2-induced nude mouse subcutaneous xenograft tumor; type: in vivo, nude mice (BALB/c-nu); conditions: 3 mg/kg, IV
Experimental: This example was performed to further evaluate and compare the efficacy of ADC drugs on WSU-DLCL2-induced nude mouse subcutaneous xenograft tumor.
Experimental steps: each nude mouse was subcutaneously inoculated with 2×10^7 WSU-DLCL2 cells, and after the tumor volume reached 100-150 mm^3, the animals were grouped according to tumor volume (D0). The mice were administrated by intravenous injection (IV) at an administration volume of 10 mL/kg. The tumor volumes and body weights were measured twice a week and the results were recorded.
Unless otherwise indicated, comparison between tumor volumes of the two groups was made by two-tailed Student's t-test, with P<0.05 defined as statistically significant difference.

WSU-DLCL2 = type: cell-based, human; conditions: WSU-DLCL2 (CD79B low-expression), 72 h, MTT
Experimental: as §1, §2, §3

Raji = type: cell-based; conditions: Raji (CD79B negative-expression), 72 h, MTT
Experimental: as §1, §2, §3

## ADC-8: SN8 conjugated with MC-VC-PAB-MMAE; positive drug ADC-8 (namely Polivy) [reference compound]
[1]
  Endocytosis rate (4 h): 76%
Human CD79B
  EC50: 5.98 nM
[2]; D0, baseline at grouping
  Mean tumor volume (mm^3) D0: 117.1 mm^3
[2]; single dose D0, D20
  Mean tumor volume (mm^3) D20: 862.1 mm^3
  Tumor growth inhibition (%) D20: 41%
[2]; single dose D0, D20, control IgG1
  T/C (%) D20: 59%
[2]; single dose D0, tumors of 6
  Partial regression: 0
[3]; 3 mg/kg or 10 mg/kg, single intravenous injection
  efficacy on WSU-DLCL2-induced nude mouse subcutaneous xenograft tumor (conclusion): significant efficacy
[3]; 3 mg/kg
  Mean tumor volume (mm^3 ± SEM) D0: 117.6 ± 3.0 mm^3
  Mean tumor volume (mm^3 ± SEM) D21: 547.2 ± 38.1 mm^3
  Tumor growth inhibition (%) D21: 39%
  T/C (%) D21: 61%
  Partial regression: 0
[3]; 10 mg/kg
  Mean tumor volume (mm^3 ± SEM) D0: 115.0 ± 3.7 mm^3
  Mean tumor volume (mm^3 ± SEM) D21: 167.8 ± 50.3 mm^3
  Tumor growth inhibition (%) D21: 93%
  T/C (%) D21: 7%
  Partial regression: 4/6 and 4
DoHH2
  IC50: 0.0806 µg/mL
[4]; D0, baseline at grouping
  Mean tumor volume (mm^3) D0: 105.0 mm^3
[4]; single dose D0, D21
  % T/C D21: 90%
  % Tumor growth inhibition D21: 10%
  Mean tumor volume (mm^3) D21: 792.6 mm^3
[4]; single dose D0, tumors of 6
  Partial regression: 0
WSU-DLCL2
  IC50: 0.1169 µg/mL
Raji
  IC50: >10 µg/mL
